Laboratory results: US20160024086A1, “AZAINDOLE RETINOIC ACID RECEPTOR-RELATED ORPHAN RECEPTOR MODULATORS AND USES THEREOF” (INNOV17 LLC, priority 2014, published 2016)

Experiments:
Type in all cases: cell-based
Conditions in all cases: 72 h; human CD4+ T cells under TH17-polarizing conditions, 3 days, supernatant ELISA
[1] = tested on: IL-17A; assay: Human TH17 cytokine inhibition as measured by ELISA (IL-17A)
Procedure: (§1) Human TH17 Cytokine Inhibition as Measured by ELISA
(§2) Peripheral blood mononuclear cells (PBMCs) were sourced from freshly prepared leukocyte enriched plasma (buffy coat) from healthy donors (New York Blood Center). PBMCs were isolated by density gradient centrifugation using Ficoll-Paque™ PLUS (GE Healthcare). Human CD4+ T cells were seeded into 96-well plates (5×10^4 cells/well) and activated with plate-bound anti-human (h)-CD3 antibody and soluble h-aCD28 (both at 1 ug/ml; eBioscience) and differentiated into TH17 cells with 20 ng/mL h-IL-6, 5 ng/mL h-TGF-β1, 10 ng/mL h-IL-23 (eBioscience) and 10 ng/mL IL-1β (Miltenyi Biotec) in serum-free TexMACS Medium (Miltenyi Biotec) supplemented with 1% Penicillin/Streptomycin (Lonza) for 3 days. CD4+ T cells propagated under TH17-polarizing conditions were cultured in the presence or absence of various concentrations of compounds with a final concentration of 0.1% DMSO. Supernatants were collected and stored at −20° C. until assayed for IL-17A, IL-17F and IL-21 levels by “Ready-Set-Go” ELISA kits (eBioscience) as per manufacturer's instructions. Endpoint absorbance was read at 450 nm using a microplate reader (Perkin Elmer).

[2] = tested on: IL-17F; assay: Human TH17 cytokine inhibition as measured by ELISA (IL-17F)
Procedure: as §1, §2

[3] = tested on: IL-21; assay: Human TH17 cytokine inhibition as measured by ELISA (IL-21)
Procedure: as §1, §2

[4] = tested on: IL-22; assay: Human TH17 cytokine inhibition as measured by ELISA (IL-22)

Measured: IC50

CC1(C)CC(Cn2ccc3nc(-c4cn[nH]c4)ccc32)CN1C(=O)c1ccccc1 (stereo not drawn) [Example 19, (4-((5-(1H-pyrazol-4-yl)-1H-pyrrolo[3,2-b]pyridin-1-yl)methyl)-2,2-dimethylpyrrolidin-1-yl)(phenyl)methanone]
< 10 µM: [1] | [2] | [3]

O=S(=O)(Cc1ccccc1)N1CCC(Cn2ccc3nc(-c4cn[nH]c4)ccc32)CC1 [Example 32, 1-((1-(benzylsulfonyl)piperidin-4-yl)methyl)-5-(1H-pyrazol-4-yl)-1H-pyrrolo[3,2-b]pyridine]
< 10 µM: all assays above

C[C@@H]1C[C@H](Cn2ccc3nc(-c4cn[nH]c4)ccc32)CN1C(=O)CCc1ccccc1 (racemic) [Example 41, rac.-cis-1-(4-((5-(1H-pyrazol-4-yl)-1H-pyrrolo[3,2-b]pyridin-1-yl)methyl)-2-methylpyrrolidin-1-yl)-3-phenylpropan-1-one]
< 10 µM: [1] | [2] | [3]

O=C(Cc1ccccc1)N1CCC(Cn2ccc3nc(-c4cn[nH]c4)ccc32)CC1 [Example 7, 1-(4-((5-(1H-pyrazol-4-yl)-1H-pyrrolo[3,2-b]pyridin-1-yl)methyl)piperidin-1-yl)-2-phenylethanone]
< 10 µM: [1] | [2] | [3]

O=S(=O)(c1ccccc1)N1CCC(Cn2ccc3nc(-c4cn[nH]c4)ccc32)CC1 [Example 30, 1-((1-(phenylsulfonyl)piperidin-4-yl)methyl)-5-(1H-pyrazol-4-yl)-1H-pyrrolo[3,2-b]pyridine]
< 10 µM: all assays above

O=C(CCc1ccccc1)N1CCC(Cn2ccc3nc(-c4cn[nH]c4)ccc32)CC1 [Example 3, 1-(4-((5-(1H-pyrazol-4-yl)-1H-pyrrolo[3,2-b]pyridin-1-yl)methyl)piperidin-1-yl)-3-phenylpropan-1-one]
< 10 µM: [1] | [2] | [3]

O=C(CC1CCCCC1)N1CCC(Cn2ccc3nc(-c4cn[nH]c4)ccc32)CC1 [Example 4, 1-(4-((5-(1H-pyrazol-4-yl)-1H-pyrrolo[3,2-b]pyridin-1-yl)methyl)piperidin-1-yl)-2-cyclohexylethanone]
< 10 µM: [1] | [2] | [3]

C[C@H]1C[C@H](Cn2ccc3nc(-c4cn[nH]c4)ccc32)CN1C(=O)CCc1ccccc1 (racemic) [Example 40, rac.-trans-1-(4-((5-(1H-pyrazol-4-yl)-1H-pyrrolo[3,2-b]pyridin-1-yl)methyl)-2-methylpyrrolidin-1-yl)-3-phenylpropan-1-one]
< 10 µM: all assays above
